From patent publication US12281114B2, “NK3 modulators and uses thereof” (Kallyope, Inc., priority 2023, dated 2025)

molecular target: T1, human NK3 (Homo sapiens, UniProt P29371); assay: FLIPR calcium assay in antagonist mode (NKB EC70 challenge); assay type: cell-based; conditions: stable cell line expressing human recombinant NK3; antagonist mode vs EC70 of NKB agonist
T1 sequence (P29371 1-465): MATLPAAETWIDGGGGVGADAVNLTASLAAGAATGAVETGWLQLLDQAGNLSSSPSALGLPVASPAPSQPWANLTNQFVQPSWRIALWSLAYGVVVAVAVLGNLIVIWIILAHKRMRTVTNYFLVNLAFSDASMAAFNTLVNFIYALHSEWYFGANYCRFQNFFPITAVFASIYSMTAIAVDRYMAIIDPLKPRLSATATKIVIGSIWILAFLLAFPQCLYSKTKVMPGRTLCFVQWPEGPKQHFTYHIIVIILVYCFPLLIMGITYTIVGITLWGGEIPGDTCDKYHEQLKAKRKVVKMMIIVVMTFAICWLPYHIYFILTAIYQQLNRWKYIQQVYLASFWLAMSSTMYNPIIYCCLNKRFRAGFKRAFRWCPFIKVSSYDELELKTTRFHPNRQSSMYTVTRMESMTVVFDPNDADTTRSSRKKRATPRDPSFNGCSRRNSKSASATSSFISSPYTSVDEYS
Experimental: Stable Cell Lines: A human recombinant NK3 Tachykinin Receptor stable cell line was purchased from GenScript (Genscript, Cat. #M00201; GenBank Accession Number NM 001059). The cell line was cultured according to manufacturer instructions, using 100 μg/mL Hygromycin B (Invitrogen, Cat. #D2650) for selective pressure. Cells were then collected using 0.05% Trypsin-EDTA (GIBCO, Cat. #25300) and frozen in a freezing media containing 90% FBS (Gibco, Cat. #10099-141) and 10% DMSO (Sigma, Cat. #D2650) at a density of 30×10^6 cells/mL. This bank of assay-ready frozen cells was later used in FLIPR assays to evaluate the potency and efficacy of NK3 antagonist test compounds.
FLIPR Calcium Assay: The FLIPR assay, used to measure changes in intracellular calcium levels, was performed in a 384-well plate format using the FLIPR Calcium 6 assay kit (Molecular Devices, Cat. #R8190). Assay-ready frozen cells expressing human NK3 (Genscript, Cat. #M00201) were thawed, washed, trypsinized, counted using a ViCell, and plated in cell growth media without Hygromycin at a density of […] (40 μL/well).
Calculation of NKB EC70: An EC70 concentration of NKB needed to be determined for competition against test antagonists prior to the compound screen. NKB agonist (Phoenix Pharmaceuticals, Cat. #046-26) was diluted in DMSO at 1800 nM (6-fold the final concentration) and serially diluted to generate a 13-point dose response curve (3-fold serial dilution) using an ECHO. 20 μL of 1× stimulation buffer was added using the BRAVO. 10 μL of DMSO was added while on the FLIPR (described as the first addition), then the RFU signal was measured for 10 minutes. The NKB titration was added to the plate, then the RFU signal was measured for 10 minutes (described as the second addition) on the FLIPR. The EC70 concentration was determined by using a four-parameter fit on GraphPad Prism prior to performing the compound screen.
FLIPR Screen in Antagonist Mode: Test compounds were prepared at 60 μM (6-fold the final concentration) and spotted in 370 nL using the Janus and ECHO. 20 μL of assay buffer was added using the BRAVO. Calcium-sensitive dye was reconstituted in loading buffer (Molecular Devices, Cat. #R8190). Media was removed from the cell plate using a Bluecat Cell Washer, and 40 μL of dye was added to the cell plate using the Apricot. The plate was incubated for 2 hours at 37° C., 5% CO2, then transferred to the FLIPR instrument. 10 μL of compound was added on the FLIPR (described as the first addition), then the RFU signal was measured for 10 minutes. EC70 of NKB agonist was added to the entire plate (described as the second addition), and the RFU signal was measured for 10 minutes on the FLIPR. RFU (relative fluorescence units) signals for first baseline, first peak, second baseline, and second peak were measured using the FLIPR. RFU signal (second peak minus second baseline) for positive (Max, at 10 μM antagonist) and negative (Min, at 0 μM antagonist) controls were used to normalize data and generate values for % Activity. IC50 and efficacy values were determined using a standard curve fitting equation on Dotmatics.

| SMILES | IC50 |
| --- | --- |
| Cc1nn(C)cc1-c1ccccc1-c1nc2cc(C(=O)NCCC3(O)COC3)ccn2c1Cl [Compound 651] | 9.28 nM |
| Cc1nn(C)cc1-c1cccc(F)c1-c1nc2cc(C(=O)NC3CCNCC3)ccn2c1Cl [Compound 705] | 4.97 nM |
| Cc1nn(C)cc1-c1ccccc1-c1nc2cc(C(=O)NC(C)c3n[nH]c(=O)[nH]3)ccn2c1Cl (stereo not shown) [Compound 747] | 2.08 nM |
| Cc1nn(C)cc1-c1ccccc1-c1nc2cc(C(=O)NCc3cnc(N)nc3)ccn2c1Cl [Compound 761] | 1.92 nM |
| Cc1nn(C)cc1-c1ccccc1-c1nc2cc(C(=O)N[C@H]3CO[C@H]4[C@@H]3OC[C@H]4O)ccn2c1Cl [Compound 768] | 1.96 nM |
| Cc1nn(C)cc1-c1ccccc1-c1nc2cc(C(=O)N[C@H]3CO[C@H]4[C@@H]3OC[C@@H]4O)ccn2c1C#N [Compound 774] | 5.21 nM |
| Cc1nn(C)cc1-c1ccccc1-c1nc2cc(C(=O)N[C@H]3CO[C@H]4[C@@H]3OC[C@H]4O)ccn2c1C [Compound 779] | 5.82 nM |
| Cc1nn(C)cc1-c1cccc(F)c1-c1nc2cc(C(=O)N[C@H]3CO[C@H]4[C@@H]3OC[C@H]4O)ccn2c1Cl [Compound 780] | 3.34 nM |
| Cc1c(-c2ccccc2-c2cn(C)nc2C(F)(F)F)nc2cc(C(=O)N[C@@H]3CO[C@H]4[C@@H]3OC[C@H]4O)ccn12 [Compound 783] | 3.21 nM |
| Cc1c(-c2ccccc2-c2cn(C)nc2C(F)(F)F)nc2cc(C(=O)N[C@H]3CO[C@H]4[C@@H]3OC[C@H]4O)ccn12 [Compound 784] | 6.21 nM |
| Cn1cc(-c2cccc(F)c2-c2nc3cc(C(=O)N[C@H]4C[C@@](C)(O)C4)ccn3c2Cl)c(F)n1 [Compound 791, 3-chloro-2-(2-fluoro-6-(3-fluoro-1-methyl-1H-pyrazol-4-yl)phenyl)-N-((1s,3s)-3-hydroxy-3-methylcyclobutyl)imidazo[1,2-a]pyridine-7-carboxamide] | 0.72 nM |
| Cc1nn(C)cc1-c1ccccc1-c1nc2cc(C(=O)N3CCC4(CC(CO)C4)C3)ccn2c1Cl (stereo not shown) [Compound 792] | 2.09 nM |
| Cc1nn(C)cc1-c1ccccc1-c1nc2cc(C(=O)N[C@@H]3CO[C@H]4[C@@H]3OC[C@H]4N)ccn2c1Cl [Compound 794] | 8.45 nM |
| Cc1nn(C)cc1-c1ccccc1-c1nc2cc(C(=O)NC[C@@H](C)N3CCNCC3)ccn2c1Cl [Compound 797] | 4.63 nM |
| Cc1c(-c2ccccc2-c2nc3cc(C(=O)N[C@@H]4CO[C@H]5[C@@H]4OC[C@H]5O)ccn3c2Cl)cnn1CC1CC1 [Compound 801] | 22 nM |
| Cc1nn(C)cc1-c1cc(F)cc(F)c1-c1nc2cc(C(=O)N3CC4(O)CC3C4)ccn2c1Cl [Compound 814] | 3.33 nM |
| O=C1N[C@H]2C[C@@H]1N(C(=O)c1ccn3c(Cl)c(-c4ccccc4-c4cnn(C(F)(F)F)c4C(F)(F)F)nc3c1)C2 [Compound 816] | 8.46 nM |
| C[C@]1(O)C[C@H](NC(=O)c2ccn3c(Cl)c(-c4ccccc4-c4cn(C(F)F)nc4Cl)nc3c2)C1 [Compound 819] | 6.12 nM |
| C[C@]1(O)C[C@H](NC(=O)c2ccn3c(Cl)c(-c4ccccc4-c4cnn(C(F)(F)F)c4Cl)nc3c2)C1 [Compound 820] | 0.77 nM |
| C[C@]1(O)C[C@H](NC(=O)c2ccn3c(Cl)c(-c4ccccc4-c4cn(C(F)(F)F)nc4Cl)nc3c2)C1 [Compound 821] | 2.49 nM |
| Cc1nn(C)cc1-c1cncc(F)c1-c1nc2cc(C(=O)N[C@H]3C[C@@](C)(O)C3)ccn2c1Cl [Compound 823] | 3.25 nM |

The remaining compounds from weak to strong by IC50, led by results:

| IC50 | SMILES |
| --- | --- |
| 22.4 nM | Cc1nn(C)cc1-c1ccccc1-c1nc2cc(C(=O)N3C[C@@H]4NCCN[C@@H]4C3)ccn2c1Cl [Compound 798] |
| 12.7 nM | Cc1nn(C)cc1-c1ccccc1-c1nc2cc(C(=O)N[C@H]3CO[C@H]4[C@@H]3OC[C@H]4O)ccn2c1C#N [Compound 781] |
| 12.5 nM | Cn1cc(-c2ccccc2-c2nc3cc(C(=O)N4C[C@@H]5C[C@H]4C(=O)N5)ccn3c2Cl)c(C#N)n1 [Compound 795] |
| 9.61 nM | Cc1nn(C)cc1-c1cc(F)ccc1-c1nc2cc(C(=O)NC34CNC(C3)C4)ccn2c1Cl [Compound 822] |
| 8.07 nM | Cc1nn(C)cc1-c1ccc(F)cc1-c1nc2cc(C(=O)N3C[C@@H]4C[C@H]3C(=O)N4)ccn2c1Cl [Compound 800] |
| 6.76 nM | Cc1nn(C)cc1-c1ccccc1-c1nc2cc(C(=O)NC3CCNCC3)ccn2c1Cl [Compound 704] |
| 5.89 nM | Cc1nn(C)cc1-c1c(F)cncc1-c1nc2cc(C(=O)N[C@H]3C[C@](C)(O)C3)ccn2c1Cl [Compound 824] |
| 5.83 nM | Cc1nn(C)cc1-c1ccccc1-c1nc2cc(C(=O)NCC3(O)COC3)ccn2c1Cl [Compound 650] |
| 5.58 nM | Cc1nn(C)cc1-c1ccccc1-c1nc2cc(C(=O)NCCc3n[nH]c(=O)[nH]3)ccn2c1Cl [Compound 748] |
| 4.8 nM | Cc1nn(C)cc1-c1cccc(F)c1-c1nc2cc(C(=O)N[C@H]3CO[C@H]4[C@@H]3OC[C@H]4O)ccn2c1C#N [Compound 782] |
| 4.7 nM | Cc1nn(C)cc1-c1cccc(F)c1-c1nc2cc(C(=O)N3CCNCC3)ccn2c1Cl [Compound 799] |
| 4.64 nM | Cc1nn(C)cc1-c1cccc(F)c1-c1nc2cc(C(=O)N[C@H]3CO[C@H]4[C@@H]3OC[C@@H]4O)ccn2c1C#N [Compound 775] |
| 4.26 nM | Cc1nn(C)cc1-c1ccccc1-c1nc2cc(C(=O)N[C@H]3CO[C@H]4[C@@H]3OC[C@@H]4O)ccn2c1Cl [Compound 767] |
| 4.11 nM | Cc1nn(C)cc1-c1cccc(F)c1-c1nc2cc(C(=O)N3CCN(C(CO)CO)CC3)ccn2c1Cl [Compound 796] |
| 3.31 nM | CC12CC(NC(=O)c3ccn4c(Cl)c(-c5c(F)cc(F)cc5-c5c[nH]nc5F)nc4c3)(CO1)C2 [Compound 790, 3-chloro-2-(2,4-difluoro-6-(3-fluoro-1H-pyrazol-4-yl)phenyl)-N-(1-methyl-2-oxabicyclo[2.1.1]hexan-4-yl)imidazo[1,2-a]pyridine-7-carboxamide] |
| 2.78 nM | Cc1nc(N)ccc1CNC(=O)c1ccn2c(Cl)c(-c3ccccc3-c3cn(C)nc3C)nc2c1 [Compound 759] |
| 2.63 nM | Cc1nn(C)cc1-c1cccc(F)c1-c1nc2cc(C(=O)N[C@H]3CO[C@H]4[C@@H]3OC[C@@H]4O)ccn2c1Cl [Compound 773] |
| 1.99 nM | N#CC12CC(NC(=O)c3ccn4c(Cl)c(-c5c(F)cc(F)cc5-c5c[nH]nc5F)nc4c3)(C1)C2 [Compound 789, 3-chloro-N-(3-cyanobicyclo[1.1.1]pentan-1-yl)-2-(2,4-difluoro-6-(3-fluoro-1H-pyrazol-4-yl)phenyl)imidazo[1,2-a]pyridine-7-carboxamide] |
| 1.92 nM | Cc1nn(C)cc1-c1c(F)c(F)cc(F)c1-c1nc2cc(C(=O)N3C[C@@H]4C[C@H]3C(=O)N4)ccn2c1Cl [Compound 817] |
| 1.19 nM | Cc1nn(C)cc1-c1ccccc1-c1nc2cc(C(=O)N[C@H]3C[C@H](C(C)(C)O)C3)ccn2c1Cl [Compound 793] |
| 1.03 nM | CC12CC(NC(=O)c3ccn4c(Cl)c(-c5c(F)cc(F)cc5-c5c[nH]nc5Cl)nc4c3)(CO1)C2 [Compound 788, 3-chloro-2-(2-(3-chloro-1H-pyrazol-4-yl)-4,6-difluorophenyl)-N-(1-methyl-2-oxabicyclo[2.1.1]hexan-4-yl)imidazo[1,2-a]pyridine-7-carboxamide] |
| 0.99 nM | C[C@]1(O)C[C@H](NC(=O)c2ccn3c(Cl)c(-c4ccccc4-c4cnn(C(F)F)c4Cl)nc3c2)C1 [Compound 818] |
